pIC50: −log10 of the molar value.
Target: BRD4 (Homo sapiens, UniProt O60885)
Test: Time resolved fluorescence resonance energy transfer (TR-FRET) binding assay, bromodomain BRD4
Settings: one of the FRET assays described; read-out: FRET BRD4 IC50

SMILES	pIC50
Cc1noc(C)c1-c1cnc2c3cnc(Cl)cc3n([C@H](c3ccc(F)cc3)C3CCOCC3)c2c1 [Example 326]	> 8.00
Cc1nnn(C)c1-c1cnc2c3ccc(-c4c(C)nnn4C)nc3n([C@@H](c3ccccc3)C3CCOCC3)c2c1 [Example 164, 5,11-Bis(dimethyl-1H-1,2,3-triazol-5-yl)-8-[(R)-oxan-4-yl(phenyl)methyl]-3,8,10-triazatricyclo[7.4.0.0^2,^7]trideca-1(9),2(7),3,5,10,12-hexaene]	> 8.00
Cc1noc(C)c1-c1cnc2c3ccc(S(C)(=O)=O)nc3n([C@H](c3ccccc3F)C3CCOCC3)c2c1 [Example 222, 5-(Dimethyl-1,2-oxazol-4-yl)-8-[(S)-(2-fluorophenyl)(oxan-4-yl)methyl]-11-methanesulfonyl-3,8,10-triazatricyclo[7.4.0.0^2,^7]trideca-1(13),2(7),3,5,9,11-hexaene]	> 8.00
Cc1cnn(C)c1-c1cnc2c3ccc(S(C)(=O)=O)nc3n([C@H](c3ccccc3)C3CCOCC3)c2c1 [Example 146, 5-(1,4-Dimethyl-1H-pyrazol-5-yl)-11-methanesulfonyl-8-[(S)-oxan-4-yl(phenyl)methyl]-3,8,10-triazatricyclo[7.4.0.0^2,^7]trideca-1(13),2(7),3,5,9,11-hexaene]	> 5.82
Cc1nnn(C)c1-c1cnc2c3ccc(N4CCN(S(C)(=O)=O)CC4)nc3n([C@H](c3ccccc3)C3CCOCC3)c2c1 [Example 188, 5-(Dimethyl-1H-1,2,3-triazol-5-yl)-11-(4-methanesulfonylpiperazin-1-yl)-8-[(S)-oxan-4-yl(phenyl)methyl]-3,8,10-triazatricyclo[7.4.0.0^2,^7]trideca-1(9),2(7),3,5,10,12-hexaene]	> 9.00
[2H]C([2H])([2H])c1nnn(C)c1-c1cnc2c3c(OC)nc(C(C)(C)O)cc3n([C@H](c3ncccc3F)C3CCOCC3)c2c1 [Example 309, 2-{8-[(S)-(3-Fluoropyridin-2-yl)(oxan-4-yl)methyl]-13-methoxy-5-[4-(^2H3)methyl-1-methyl-1H-1,2,3-triazol-5-yl]-3,8,12-triazatricyclo[7.4.0.0^2,^7]trideca-1(9),2(7),3,5,10,12-hexaen-11-yl}propan-2-ol]	> 8.00
Cc1nnn(C)c1-c1cnc2c3cnc(C(C)(C)O)cc3n([C@H](c3ccc(F)cc3)C3CCOCC3)c2c1 [Example 336]	> 8.00
CCc1nnn(C)c1-c1cnc2c3cnc(C(C)(C)O)cc3n([C@H](c3ccccc3)C3CCOCC3)c2c1 [Example 340, 2-[5-(4-Ethyl-1-methyl-1H-1,2,3-triazol-5-yl)-8-[(S)-oxan-4-yl(phenyl)methyl]-3,8,12-triazatricyclo[7.4.0.0^2,^7]trideca-1(9),2(7),3,5,10,12-hexaen-11-yl]propan-2-ol]	> 8.00
COc1nnn(C)c1-c1cnc2c3ccc(N4CCS(=O)(=O)CC4)nc3n([C@H](c3ccccc3F)C3CCOCC3)c2c1 [Example 256, 4-{8-[(S)-(2-Fluorophenyl)(oxan-4-yl)methyl]-5-(4-methoxy-1-methyl-1H-1,2,3-triazol-5-yl)-3,8,10-triazatricyclo[7.4.0.0^2,^7]trideca-1(13),2(7),3,5,9,11-hexaen-11-yl}-1λ^6,4-thiomorpholine-1,1-dione]	> 8.00
COc1ncc(Br)c2c1c1ncc(-c3c(C)nnn3C)cc1n2[C@H](c1ccccc1)C1CCOCC1 [Example 38, 10-Bromo-5-(dimethyl-1H-1,2,3-triazol-5-yl)-13-methoxy-8-[(S)-oxan-4-yl(phenyl)methyl]-3,8,12-triazatricyclo[7.4.0.0^2,^7]trideca-1(13),2(7),3,5,9,11-hexaene]	> 8.00
Cc1nnn(C)c1-c1cnc2c3cnc(C(C)(C)O)cc3n([C@H](c3ccccc3)C3CCOCC3)c2c1 [Example 285, 2-[5-(Dimethyl-1H-1,2,3-triazol-5-yl)-8-[(S)-oxan-4-yl(phenyl)methyl]-3,8,12-triazatricyclo[7.4.0.0^2,^7]trideca-1(9),2(7),3,5,10,12-hexaen-11-yl]propan-2-ol]	> 9.00
Cc1cccnc1C(C1CCOCC1)n1c2cc(-c3c(C)nnn3C)ncc2c2ncc(C(C)(C)O)cc21 (single isomer, unassigned) [Example 373]	> 5.82
Cc1nnn(C)c1-c1cnc2c3ccnc(Cl)c3n([C@H](c3ccccc3)C3CCOCC3)c2c1 [Example 6, 10-Chloro-5-(dimethyl-1H-1,2,3-triazol-5-yl)-8-[(S)-oxan-4-yl(phenyl)methyl]-3,8,11-triazatricyclo[7.4.0.0^2,^7]trideca-1(13),2(7),3,5,9,11-hexaene]	> 9.00
[2H]C([2H])([2H])c1nnn(C)c1-c1cnc2c3ccc(Cl)nc3n([C@H](c3ccccc3F)C3CCOCC3)c2c1 [Example 233, 11-Chloro-8-[(S)-(2-fluorophenyl)(oxan-4-yl)methyl]-5-[4-(^2H3)methyl-1-methyl-1H-1,2,3-triazol-5-yl]-3,8,10-triazatricyclo[7.4.0.0^2,^7]trideca-1(13),2(7),3,5,9,11-hexaene]	> 8.00
Cc1nnn(C)c1-c1cnc2c3ccc(N4CCN(C(=O)C5CC5)CC4)nc3n([C@H](c3ccc(F)cc3)C3CCOCC3)c2c1 [Example 258, 11-(4-Cyclopropanecarbonylpiperazin-1-yl)-5-(dimethyl-1H-1,2,3-triazol-5-yl)-8-[(S)-(4-fluorophenyl)(oxan-4-yl)methyl]-3,8,10-triazatricyclo[7.4.0.0^2,^7]trideca-1(13),2(7),3,5,9,11-hexaene]	> 8.00
COc1ncc(S(C)(=O)=O)c2c1c1ncc(-c3c(C)nnn3C)cc1n2[C@H](c1ccc(F)cc1)C1CCOCC1 [Example 52, 5-(Dimethyl-1H-1,2,3-triazol-5-yl)-8-[(S)-(4-fluorophenyl)(oxan-4-yl)methyl]-10-methanesulfonyl-13-methoxy-3,8,12-triazatricyclo[7.4.0.0^2,^7]trideca-1(13),2(7),3,5,9,11-hexaene]	> 9.00
[2H]C([2H])([2H])c1nnn(C)c1-c1cnc2c3c(N(C)CC)ncc(S(C)(=O)=O)c3n([C@H](c3ccccc3)C3CCOCC3)c2c1 [Example 115, N-Ethyl-10-methanesulfonyl-N-methyl-5-[4-(^2H3)methyl-1-methyl-1H-1,2,3-triazol-5-yl]-8-[(S)-oxan-4-yl(phenyl)methyl]-3,8,12-triazatricyclo[7.4.0.0^2,^7]trideca-1(13),2(7),3,5,9,11-hexaen-13-amine]	> 9.00
[2H]C([2H])([2H])c1nnn(C)c1-c1cnc2c3c(OC)ncc(C(C)(C)O)c3n(C(c3ccccc3)C3CCC(F)(F)CC3)c2c1 (single isomer, unassigned) [Example 281, 2-{8-[(4,4-Difluorocyclohexyl)(phenyl)methyl]-13-methoxy-5-[4-(^2H3)methyl-1-methyl-1H-1,2,3-triazol-5-yl]-3,8,12-triazatricyclo[7.4.0.0^2,^7]trideca-1(9),2,4,6,10,12-hexaen-10-yl}propan-2-ol]	> 8.00
Cc1nnn(C)c1-c1cnc2c3ccc(S(C)(=O)=O)nc3n([C@H](c3ccccc3)C3CCOCC3)c2c1 [Example 145, 5-(Dimethyl-1H-1,2,3-triazol-5-yl)-11-methanesulfonyl-8-[(S)-oxan-4-yl(phenyl)methyl]-3,8,10-triazatricyclo[7.4.0.0^2,^7]trideca-1(13),2(7),3,5,9,11-hexaene]	> 8.00
Cc1nnn(C)c1-c1cnc2c3ccc(NC(=O)C(C)C)nc3n([C@H](c3ccccc3F)C3CCOCC3)c2c1 [Example 275, N-[5-(Dimethyl-1H-1,2,3-triazol-5-yl)-8-[(S)-(2-fluorophenyl)(oxan-4-yl)methyl]-3,8,10-triazatricyclo[7.4.0.0^2,^7]trideca-1(13),2(7),3,5,9,11-hexaen-11-yl]-2-methylpropanamide]	> 8.00
Cc1cccnc1C(C1CCOCC1)n1c2cc(-c3c(C)nnn3C)ncc2c2ncc(C(C)(C)O)cc21 (single isomer, unassigned) [Example 374]	> 8.00
Cc1nnn(C)c1-c1cnc2c3ccc(N(C)C)nc3n([C@H](c3ccccc3)C3CCOCC3)c2c1 [Example 181, 5-(Dimethyl-1H-1,2,3-triazol-5-yl)-N,N-dimethyl-8-[(S)-oxan-4-yl(phenyl)methyl]-3,8,10-triazatricyclo[7.4.0.0^2,^7]trideca-1(9),2(7),3,5,10,12-hexaen-11-amine]	> 9.00
[2H]C([2H])([2H])c1nnn(C)c1-c1cnc2c3c(OC)ncc(S(C)(=O)=O)c3n(C(c3ncccc3F)C3CCC(F)(F)CC3)c2c1 (centres unmarked) [Example 73, 8-[(4,4-Difluorocyclohexyl)(3-fluoropyridin-2-yl)methyl]-10-methanesulfonyl-13-methoxy-5-[4-(^2H3)methyl-1-methyl-1H-1,2,3-triazol-5-yl]-3,8,12-triazatricyclo[7.4.0.0^2,^7]trideca-1(13),2(7),3,5,9,11-hexaene]	> 5.82
CCOP(=O)(O)CCNc1ccc2c3ncc(-c4c(C)nnn4C)cc3n([C@H](c3ccccc3)C3CCOCC3)c2n1 [Example 220, (2-{[5-(Dimethyl-1H-1,2,3-triazol-5-yl)-8-[(S)-oxan-4-yl(phenyl)methyl]-3,8,10-triazatricyclo[7.4.0.0^2,^7]trideca-1(9),2(7),3,5,10,12-hexaen-11-yl]amino}ethyl)(ethoxy)phosphinic acid]	> 9.00
[2H]C([2H])([2H])c1nnn(C)c1-c1cnc2c3ccc(N4CC(C)S(=O)(=O)C(C)C4)nc3n([C@H](c3ccccc3)C3CCOCC3)c2c1 (stereo partly drawn) [Example 193, 2,6-Dimethyl-4-{5-[4-(^2H3)methyl-1-methyl-1H-1,2,3-triazol-5-yl]-8-[(S)-oxan-4-yl(phenyl)methyl]-3,8,10-triazatricyclo[7.4.0.0^2,^7]trideca-1(9),2(7),3,5,10,12-hexaen-11-yl}-1λ^6,4-thiomorpholine-1,1-dione]	> 9.00
COc1ncc(Cl)c2c1c1ncc(-c3c(C)nnn3C)cc1n2[C@H](c1ccccc1)C1CCOCC1 [Example 39, 10-Chloro-5-(dimethyl-1H-1,2,3-triazol-5-yl)-13-methoxy-8-[(S)-oxan-4-yl(phenyl)methyl]-3,8,11-triazatricyclo[7.4.0.0^2,^7]trideca-1(13),2(7),3,5,9,11-hexaene]	> 8.00

— US9725449B2, “Tricyclic compounds as anticancer agents” (BRISTOL-MYERS SQUIBB COMPANY, priority 2015, dated 2017)
